Holding throughout (assay): biochemical
Set-up in all cases: DiscoverX KinomeScan competition binding assay across human kinases; per cent of control at 10 and 100 uM

Assay [1] concerns the target EPHA4 (Homo sapiens, UniProt P54764). The following applies: competition binding, % of control; read-out: Percent Control (100 uM Levosimendan). The gist of the method: (§1)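 KinomeScan competition binding was run across a human kinase panel at 10 μM and 100 μM levosimendan. Results are %control = (test − positive control)/(negative control − positive control) × 100.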
For assay [2], the target named is HCK (Homo sapiens, UniProt P08631). As to conditions: competition binding, % of control. The gist of the method:
as §1

The target of assay [3] is MELK (Homo sapiens, UniProt Q14680). As to conditions: competition binding, % of control; read-out: Percent Control (100 uM Levosimendan). The method, boiled down:
as §1

The target in assay [4] is TXK (Homo sapiens, UniProt P42681). As to conditions: competition binding, % of control; read-out: Percent Control (100 uM Levosimendan). The method, boiled down:
as §1

Assay [5] deals with FGFR2 (Homo sapiens, UniProt P21802). The following applies: competition binding, % of control; read-out: Percent Control (100 uM Levosimendan). The method, boiled down: as §1
In assay [6] the target is RIOK2 (Homo sapiens, UniProt Q9BVS4). The following applies: competition binding, % of control. The method, boiled down: as §1
Sequence of RIOK2 (Q9BVS4 whole entry): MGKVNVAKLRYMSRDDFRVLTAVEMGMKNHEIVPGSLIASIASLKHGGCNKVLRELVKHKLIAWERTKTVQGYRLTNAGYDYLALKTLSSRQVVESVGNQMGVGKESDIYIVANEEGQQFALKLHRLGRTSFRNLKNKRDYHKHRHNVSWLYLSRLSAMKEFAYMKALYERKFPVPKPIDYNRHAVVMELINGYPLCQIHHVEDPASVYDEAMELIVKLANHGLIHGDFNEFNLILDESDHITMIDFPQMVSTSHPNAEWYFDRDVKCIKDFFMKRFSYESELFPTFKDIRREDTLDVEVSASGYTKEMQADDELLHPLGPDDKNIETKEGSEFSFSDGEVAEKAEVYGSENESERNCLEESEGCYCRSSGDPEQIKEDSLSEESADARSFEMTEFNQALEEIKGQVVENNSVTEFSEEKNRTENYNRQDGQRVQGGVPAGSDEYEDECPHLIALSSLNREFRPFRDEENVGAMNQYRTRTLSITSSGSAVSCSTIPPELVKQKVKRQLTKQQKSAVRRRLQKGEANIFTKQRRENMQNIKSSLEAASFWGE
The target of assay [7] is T1, p38-delta (Homo sapiens, UniProt O15264).
T1 construct: gene MAPK13
T1 sequence (O15264 whole entry): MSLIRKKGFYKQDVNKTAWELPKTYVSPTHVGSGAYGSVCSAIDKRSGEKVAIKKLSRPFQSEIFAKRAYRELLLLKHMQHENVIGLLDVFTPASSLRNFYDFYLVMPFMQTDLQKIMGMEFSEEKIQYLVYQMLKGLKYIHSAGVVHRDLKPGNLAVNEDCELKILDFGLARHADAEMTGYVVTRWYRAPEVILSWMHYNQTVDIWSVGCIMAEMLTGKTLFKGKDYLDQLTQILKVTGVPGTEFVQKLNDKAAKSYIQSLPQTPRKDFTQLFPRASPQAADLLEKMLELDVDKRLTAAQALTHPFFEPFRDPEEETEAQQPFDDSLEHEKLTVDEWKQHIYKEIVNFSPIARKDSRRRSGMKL
The following applies: competition binding, % of control; read-out: Percent Control (100 uM Levosimendan). The gist of the method:
as §1

Assay [8] addresses T2, TRKA (Homo sapiens, UniProt P04629).
T2 construct: gene NTRK1
The following applies: competition binding, % of control; read-out: Percent Control (100 uM Levosimendan). The gist of the method:
as §1

In assay [9] the target is NEK1 (Homo sapiens, UniProt Q96PY6). As to conditions: competition binding, % of control; read-out: Percent Control (100 uM Levosimendan). The gist of the method: as §1
Sequence of NEK1 (Q96PY6 whole entry): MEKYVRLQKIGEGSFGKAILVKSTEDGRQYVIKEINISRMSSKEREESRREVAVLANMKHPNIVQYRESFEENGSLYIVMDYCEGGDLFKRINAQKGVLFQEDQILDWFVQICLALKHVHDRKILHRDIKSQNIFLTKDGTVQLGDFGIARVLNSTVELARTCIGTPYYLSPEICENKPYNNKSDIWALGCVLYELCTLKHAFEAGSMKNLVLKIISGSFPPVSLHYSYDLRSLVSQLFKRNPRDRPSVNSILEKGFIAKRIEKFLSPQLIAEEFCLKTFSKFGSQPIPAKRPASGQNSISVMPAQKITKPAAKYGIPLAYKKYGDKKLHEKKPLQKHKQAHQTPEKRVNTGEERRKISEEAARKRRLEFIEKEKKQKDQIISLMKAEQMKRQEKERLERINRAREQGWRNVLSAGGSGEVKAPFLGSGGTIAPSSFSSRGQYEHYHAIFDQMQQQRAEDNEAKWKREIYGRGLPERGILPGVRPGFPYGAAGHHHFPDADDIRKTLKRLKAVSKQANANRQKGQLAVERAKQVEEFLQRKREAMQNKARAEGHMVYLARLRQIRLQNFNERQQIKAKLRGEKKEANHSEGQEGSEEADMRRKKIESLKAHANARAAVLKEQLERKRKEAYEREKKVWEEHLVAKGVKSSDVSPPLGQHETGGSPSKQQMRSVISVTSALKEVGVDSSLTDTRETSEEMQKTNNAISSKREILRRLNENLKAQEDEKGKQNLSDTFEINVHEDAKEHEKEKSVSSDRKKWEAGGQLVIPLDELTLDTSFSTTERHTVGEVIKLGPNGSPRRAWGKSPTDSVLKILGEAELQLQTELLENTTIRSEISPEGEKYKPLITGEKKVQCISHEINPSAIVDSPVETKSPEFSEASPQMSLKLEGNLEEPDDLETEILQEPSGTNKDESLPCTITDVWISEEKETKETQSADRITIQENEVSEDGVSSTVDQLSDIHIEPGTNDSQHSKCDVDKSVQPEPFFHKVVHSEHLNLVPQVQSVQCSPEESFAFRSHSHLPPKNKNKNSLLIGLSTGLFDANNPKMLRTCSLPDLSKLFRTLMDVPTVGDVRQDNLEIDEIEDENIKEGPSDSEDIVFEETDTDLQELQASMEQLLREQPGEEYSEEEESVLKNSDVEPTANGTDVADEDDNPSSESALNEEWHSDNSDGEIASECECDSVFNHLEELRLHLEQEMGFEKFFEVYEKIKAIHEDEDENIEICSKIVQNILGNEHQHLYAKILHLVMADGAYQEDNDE
For assay [10], the target named is T3, ERK3 (Homo sapiens, UniProt Q16659).
T3 construct: gene MAPK6
As to conditions: competition binding, % of control; read-out: Percent Control (100 uM Levosimendan). The method, boiled down:
as §1

Assay [11] has as its target PIK3CG (Homo sapiens, UniProt P48736). The following applies: competition binding, % of control; read-out: Percent Control (100 uM Levosimendan). The gist of the method: as §1
Assay [12] concerns the target NEK10 (Homo sapiens, UniProt Q6ZWH5). As to conditions: competition binding, % of control; read-out: Percent Control (100 uM Levosimendan). The gist of the method:
as §1

In assay [13] the target is EGFR(E746-A750del) (Homo sapiens, UniProt P00533, DEL746-750). The following applies: competition binding, % of control; read-out: Percent Control (100 uM Levosimendan). The gist of the method: as §1
Sequence of EGFR(E746-A750del) (P00533 with tags, fused parts or gaps DEL746-750): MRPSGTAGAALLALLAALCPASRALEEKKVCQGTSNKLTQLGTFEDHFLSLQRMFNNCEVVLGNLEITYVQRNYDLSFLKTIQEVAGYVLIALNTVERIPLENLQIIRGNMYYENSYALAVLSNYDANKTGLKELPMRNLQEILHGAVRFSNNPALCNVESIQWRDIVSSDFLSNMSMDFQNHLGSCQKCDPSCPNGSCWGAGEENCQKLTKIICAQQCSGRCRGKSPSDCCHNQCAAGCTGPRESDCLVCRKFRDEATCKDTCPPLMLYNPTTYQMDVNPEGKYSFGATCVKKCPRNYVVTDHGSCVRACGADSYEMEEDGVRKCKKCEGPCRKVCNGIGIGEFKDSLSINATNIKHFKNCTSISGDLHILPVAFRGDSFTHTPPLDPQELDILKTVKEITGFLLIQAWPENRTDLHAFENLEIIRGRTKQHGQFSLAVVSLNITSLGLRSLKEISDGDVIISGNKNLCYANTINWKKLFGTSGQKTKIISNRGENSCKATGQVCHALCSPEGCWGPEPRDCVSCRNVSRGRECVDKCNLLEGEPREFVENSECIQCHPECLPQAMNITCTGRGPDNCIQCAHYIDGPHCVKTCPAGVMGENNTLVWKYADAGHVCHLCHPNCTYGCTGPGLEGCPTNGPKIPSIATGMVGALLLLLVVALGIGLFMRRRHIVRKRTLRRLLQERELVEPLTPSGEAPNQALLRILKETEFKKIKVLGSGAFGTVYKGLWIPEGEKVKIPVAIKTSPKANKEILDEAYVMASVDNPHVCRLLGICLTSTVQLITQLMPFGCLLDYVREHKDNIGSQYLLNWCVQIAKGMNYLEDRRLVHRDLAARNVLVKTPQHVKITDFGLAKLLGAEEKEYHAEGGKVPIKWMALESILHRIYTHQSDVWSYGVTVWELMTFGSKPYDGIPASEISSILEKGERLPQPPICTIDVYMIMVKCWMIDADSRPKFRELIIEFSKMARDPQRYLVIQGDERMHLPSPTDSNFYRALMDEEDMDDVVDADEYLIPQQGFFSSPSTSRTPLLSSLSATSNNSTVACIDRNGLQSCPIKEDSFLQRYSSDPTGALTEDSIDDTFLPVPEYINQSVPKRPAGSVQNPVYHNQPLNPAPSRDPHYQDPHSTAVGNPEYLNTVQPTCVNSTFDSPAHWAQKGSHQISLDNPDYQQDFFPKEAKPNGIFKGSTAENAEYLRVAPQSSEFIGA
Assay [14] concerns the target T4, MST1 (Homo sapiens, UniProt Q13043).
T4 construct: gene STK4
As to conditions: competition binding, % of control; read-out: Percent Control (100 uM Levosimendan). The gist of the method:
as §1

Assay [15] concerns the target EPHA2 (Homo sapiens, UniProt P29317). The following applies: competition binding, % of control; read-out: Percent Control (100 uM Levosimendan). The method, boiled down: as §1
The target of assay [16] is EGFR(S752-I759del) (Homo sapiens, UniProt P00533, DEL752-759). As to conditions: competition binding, % of control; read-out: Percent Control (100 uM Levosimendan). The method, boiled down:
as §1

Assay [17] addresses PAK4 (Homo sapiens, UniProt O96013). As to conditions: competition binding, % of control; read-out: Percent Control (100 uM Levosimendan). The gist of the method: as §1
For assay [18], the target named is ULK2 (Homo sapiens, UniProt Q8IYT8). The following applies: competition binding, % of control; read-out: Percent Control (100 uM Levosimendan). The gist of the method: as §1
In assay [19] the target is T5, MRCKA (Homo sapiens, UniProt Q5VT25).
T5 construct: gene CDC42BPA
The following applies: competition binding, % of control; read-out: Percent Control (100 uM Levosimendan). The method, boiled down: as §1

The mark [20] stands for this setting: read-out: Percent Control (10 uM Levosimendan).
[21] abbreviates: read-out: Percent Control (100 uM Levosimendan).

Results on 1 compound are retold here after publication PMC6576746, “Rational discovery of dual-indication multi-target PDE/Kinase inhibitor for precision anti-cancer therapy using structural systems pharmacology” (PLoS Computational Biology, 2019).

Each structure is given as a SMILES string.

Sequence of HCK (P08631 whole entry): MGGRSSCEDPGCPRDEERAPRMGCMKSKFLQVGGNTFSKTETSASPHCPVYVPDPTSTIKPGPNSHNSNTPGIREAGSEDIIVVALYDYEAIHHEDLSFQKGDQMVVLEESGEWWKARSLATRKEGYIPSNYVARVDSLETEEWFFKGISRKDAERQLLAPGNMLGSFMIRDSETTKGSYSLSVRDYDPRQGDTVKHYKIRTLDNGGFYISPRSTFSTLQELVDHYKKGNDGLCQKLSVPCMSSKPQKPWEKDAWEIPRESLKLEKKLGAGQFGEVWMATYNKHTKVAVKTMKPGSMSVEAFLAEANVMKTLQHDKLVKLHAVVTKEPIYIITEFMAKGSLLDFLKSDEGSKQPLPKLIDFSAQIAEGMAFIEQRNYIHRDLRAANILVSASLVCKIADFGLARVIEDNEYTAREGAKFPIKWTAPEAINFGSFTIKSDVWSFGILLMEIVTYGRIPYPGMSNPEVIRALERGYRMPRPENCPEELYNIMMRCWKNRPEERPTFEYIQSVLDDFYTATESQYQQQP
Sequence of PIK3CG (P48736 whole entry): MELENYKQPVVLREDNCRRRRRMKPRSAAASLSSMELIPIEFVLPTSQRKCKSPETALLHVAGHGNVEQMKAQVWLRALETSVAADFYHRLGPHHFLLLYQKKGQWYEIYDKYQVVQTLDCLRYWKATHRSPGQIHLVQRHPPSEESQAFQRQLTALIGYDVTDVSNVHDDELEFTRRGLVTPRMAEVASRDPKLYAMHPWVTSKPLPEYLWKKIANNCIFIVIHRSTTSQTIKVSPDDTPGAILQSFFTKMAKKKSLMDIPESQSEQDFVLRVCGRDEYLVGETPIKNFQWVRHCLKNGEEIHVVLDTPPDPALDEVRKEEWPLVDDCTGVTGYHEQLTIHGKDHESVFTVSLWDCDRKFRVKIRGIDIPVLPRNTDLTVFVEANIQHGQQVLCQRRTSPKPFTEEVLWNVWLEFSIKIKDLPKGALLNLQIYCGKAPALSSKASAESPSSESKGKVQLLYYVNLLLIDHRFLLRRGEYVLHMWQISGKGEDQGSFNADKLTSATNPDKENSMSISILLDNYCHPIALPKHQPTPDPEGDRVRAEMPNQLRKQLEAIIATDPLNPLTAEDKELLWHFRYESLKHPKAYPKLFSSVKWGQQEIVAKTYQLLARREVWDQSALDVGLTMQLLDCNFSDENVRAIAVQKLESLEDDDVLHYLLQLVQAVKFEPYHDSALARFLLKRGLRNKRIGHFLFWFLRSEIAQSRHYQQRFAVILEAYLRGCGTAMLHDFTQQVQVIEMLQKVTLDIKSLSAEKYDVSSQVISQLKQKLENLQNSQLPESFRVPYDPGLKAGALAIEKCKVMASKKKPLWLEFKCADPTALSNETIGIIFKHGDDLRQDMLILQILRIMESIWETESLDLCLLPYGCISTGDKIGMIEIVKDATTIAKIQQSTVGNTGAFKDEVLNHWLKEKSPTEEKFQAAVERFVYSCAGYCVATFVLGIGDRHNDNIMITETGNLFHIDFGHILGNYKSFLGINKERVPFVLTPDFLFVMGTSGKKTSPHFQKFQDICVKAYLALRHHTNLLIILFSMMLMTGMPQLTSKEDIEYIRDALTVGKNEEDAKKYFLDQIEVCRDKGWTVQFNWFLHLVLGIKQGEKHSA

With `C[C@@H]1CC(=O)NN=C1c1ccc(NN=C(C#N)C#N)cc1` [levosimendan], the remaining binding at 100 µM in [1] turned out to be 82%; in [2] (setting [21]), 24%; in assay [3], 100%; in [4], 60%; in assay [5], 61%; in assay [6] (setting [21]), 27%. For the same compound, the remaining binding at 100 µM in assay [7] came out at 100%; in assay [8], 65%; in assay [9], 100%; in assay [10], 79%; in assay [11], 80%; in assay [12] it was 100%. The remaining binding at 100 µM in [13] was 63%; in assay [14], 75%; in assay [15], 76%; in assay [16] it was 91%; in assay [17], 89%; in [18], 56%. For the same compound, the remaining binding at 100 µM in [19] worked out at 90%. The remaining binding at 10 µM was determined as 98% in assay [2] (setting [20]) and 67% in assay [6] (setting [20]).
